Assays:
[1] = tested on: clinical drug-sensitive and drug-resistant strains of M. tuberculosis; assay: Whole-cell activity versus clinical M. tuberculosis strains; assay type: cell-based, Mycobacterium tuberculosis
[2] = tested on: DG167-resistant M. tuberculosis; assay type: cell-based, Mycobacterium tuberculosis

Compound | whole-cell activity versus clinical strains [1] | cross-resistance with DG167 [2]
CCCCS(=O)(=O)Nc1ccc2[nH]c(C#N)c(C)c2c1 [Compound 9, N-(2-cyano-3-methyl-1H-indol-5-yl)butane-1-sulfonamide] | maintained their in vitro potency | cross-resistant
CCCCCS(=O)(=O)Nc1ccc2[nH]c(C#N)c(C)c2c1 [Compound 10, N-(2-cyano-3-methyl-1H-indol-5-yl)pentane-1-sulfonamide] | maintained their in vitro potency | cross-resistant
Cc1n[nH]c2ccc(NS(=O)(=O)CCCCF)cc12 [JSF-3285, 4-fluoro-N-(3-methyl-1H-indazol-5-yl)butane-1-sulfonamide] | comparable with its efficacy versus the H37Rv strain | cross-resistant with DG167

Source: PMC7245553 (Cell chemical biology, 2020)
